Results on 16 compounds are retold here after ChEMBL document CHEMBL1149631, “Synthesis of 3,8,9-trisubstituted-1,7,9-triaza-fluorene-6-carboxylic acid derivatives as a new class of insulin secretagogues” (Bioorg Med Chem, 2007).

Calls of active or inactive are those of the source. The rule behind the calls is not given here.

Assay [1] is described as follows: Effect on insulin secretion activity per ug of total protein in rat RIN5F cells at 1 uM after 30 mins. Type of assay: functional.
Assay [2] is described as follows: Effect on glucose-dependent insulin secretion activity per ug of total protein in rat RIN5F cells at 0.1 uM after 30 mins. The format is functional.
The nature of assay [3]: Effect on glucose-dependent insulin secretion activity per ug of total protein in rat RIN5F cells at 1 uM after 30 mins. Type of assay: functional.
A short description of assay [4]: Effect on insulin secretion activity per ug of total protein in rat RIN5F cells at 0.1 uM after 30 mins. Type of assay: functional.
A short description of assay [5]: Effect on glucose-dependent insulin secretion activity per ug of total protein in rat RIN5F cells at 10 uM after 30 mins. The format is functional.
The species named for assay [6] is Bos taurus. In words: Displacement of [3H]clonidine from I1-imidazoline binding site in bovine adrenal medulla plasma membrane upto 100 uM. Type of assay: tissue-based. A general note: In a radioligand displacement assay an active substance lowers the binding of a labelled ligand.
For assay [7], the species on record is Oryctolagus cuniculus. In words: Displacement of [3H]idazoxan from I2-imidazoline binding site in rabbit kidney membrane upto 100 uM. The format is cell membranes.
For assay [8], the species on record is Rattus norvegicus. In words: Displacement of [3H]clonidine from alpha2-AR in cerebral cortex of rat brain upto 100 uM. The format is tissue-based.
Assay [9] can be described thus: Displacement of [3H]clonidine from I1-imidazoline binding site in bovine adrenal medulla plasma membrane. Type of assay: tissue-based, Bos taurus.
The nature of assay [10]: Displacement of [3H]idazoxan from I2-imidazoline binding site in rabbit kidney membrane. Type of assay: cell membranes, Oryctolagus cuniculus.
A short description of assay [11]: Displacement of [3H]clonidine from alpha-2-adrenoceptor in cerebral cortex of rat brain. The format is tissue-based.

Consider `CCCCNC(=O)NS(=O)(=O)c1ccc(C)cc1` [TOLBUTAMIDE], for which the Activity is 26 pg/µg/h in [1], 19.9 pg/µg/h in [2], 27.1 pg/µg/h in [3] and 19.6 pg/µg/h in assay [4].
With `Cc1cnc2c(c1)c1cc(C(=O)O)nc(Cc3ccccc3)c1n2C`, the Activity turned out to be 20 pg/µg/h in assay [2], 28.1 pg/µg/h in assay [3] and 38.3 pg/µg/h in assay [5]. Besides, the outcome in [6], in assay [7] and in assay [8] was inactive.
For `COC(=O)c1cc2c3cc(C)cnc3n(C)c2c(C2CCCCC2)n1`, the values for the Activity in assay [2], in assay [3] and in assay [5] were 14.8 pg/µg/h, 15.2 pg/µg/h and 15.9 pg/µg/h, respectively.
Turning to `COC(=O)c1cc2c3cc(C)cnc3n(C)c2c(Cc2ccccc2)n1`, the results for the Activity in assay [2], in assay [3] and in [5] were 15.9 pg/µg/h, 16.1 pg/µg/h and 16.9 pg/µg/h, respectively. For the same compound, the result in assay [6], in assay [7] and in [8] was inactive.
For `COC(=O)c1cc2c([nH]c3ncc(C)cc32)c(-c2ccccc2)n1`, the Activity in assay [2] was found to be 13.9 pg/µg/h; in assay [3] it was 14.2 pg/µg/h; in assay [5] it was 14.9 pg/µg/h.
With `Cc1cnc2c(c1)c1cc(C(=O)O)nc(C3CCCCC3)c1n2C`, the Activity in assay [2] is 18.2 pg/µg/h; in [3] it was 23.1 pg/µg/h; in assay [5], 28.2 pg/µg/h.
With `COC(=O)C1Cc2c(n(C)c3ncc(C)cc23)C(C)N1` (stereo unspecified), the figures for the Activity in [2], in [3] and in assay [5] were 12.3 pg/µg/h, 13.2 pg/µg/h and 14 pg/µg/h, respectively.
On to `COC(=O)c1cc2c3cccnc3n(C)c2c(-c2ccccc2)n1`, for which the Activity came to 13.9 pg/µg/h in assay [2], 14.1 pg/µg/h in [3] and 14.8 pg/µg/h in [5].
For `COC(=O)c1cc2c3cccnc3n(C)c2c(Cc2ccccc2)n1` the same measures were 14 pg/µg/h, 14.6 pg/µg/h and 15 pg/µg/h.
In the case of `COC(=O)c1cc2c3cccnc3n(C)c2c(C)n1`, the Activity in assay [2] turned out to be 13.4 pg/µg/h; in [3], 13.9 pg/µg/h; in assay [5], 14.1 pg/µg/h.
With `COC(=O)C1Cc2c(n(C)c3ncc(C)cc23)C(Cc2ccccc2)N1` (stereo unspecified), the Activity was 15.1 pg/µg/h in assay [2], 15.9 pg/µg/h in assay [3] and 16.8 pg/µg/h in [5]. The result in assay [6], in [7] and in assay [8] was inactive.
Turning to `COC(=O)C1Cc2c(n(C)c3ncc(C)cc23)C(C2CCCCC2)N1` (stereo unspecified), the Activity in assay [2] came out at 12.4 pg/µg/h; in assay [3], 13.4 pg/µg/h; in assay [5], 14.2 pg/µg/h.
For `COC(=O)C1Cc2c([nH]c3ncc(C)cc23)C(C)N1` (stereo unspecified), the Activity in assay [2] is 10.9 pg/µg/h; in assay [3], 11.5 pg/µg/h; in assay [5], 11.9 pg/µg/h.
Usually Ki stands for a dissociation constant, usually derived from enzyme kinetics or from competition with a known ligand. In the case of `Cc1nccc2c1[nH]c1ccccc12` [HARMAN], the Activity came to 20 pg/µg/h in [2], 27 pg/µg/h in [3] and 37 pg/µg/h in assay [5]. Further, the Ki in [9] was 36 nM; in [10], 54 nM; in assay [11], over 12000 nM.
For the compound `COC(=O)c1cc2c([nH]c3ncc(C)cc32)c(C2CCCCC2)n1`, the results for the Activity in assay [2], in assay [3] and in assay [5] were 13.5 pg/µg/h, 14 pg/µg/h and 14.3 pg/µg/h, respectively.
Consider `Cc1nc(C(=O)O)cc2c3cccnc3n(C)c12`, for which the Activity in assay [2] was found to be 16.2 pg/µg/h; in [3] it was 18.1 pg/µg/h; in assay [5], 21.5 pg/µg/h.
